The values below come from ChEMBL document CHEMBL1155712, “Cytotoxic polyacetylenes from the twigs of Ochanostachys amentacea” (2001).

Values after ≈ are worked out from the molar mass of the structure shown.

Format in all cases: functional
Holding throughout (settings): read-out: ED50 (the source's name)

The test system of experiment [1] is KB. Description: Cytotoxicity against multidrug-resistant human KB cells in presence of vinblastine.
The subject of the next experiment is Col2. Description: Cytotoxicity against human Col2 cells.
A further experiment concerns SW626. Description: Cytotoxicity against human SW626 cells.
A short description of experiment [2]: Cytotoxicity against human BC1 cells.
The next experiment deals with Lu1. Description: Cytotoxicity against human Lu1 cells.
For a further experiment, the system named is SK-N-SH. Description: Cytotoxicity against human SK-N-SH cells.
The subject of another experiment is M109. Description: Cytotoxicity against mouse M109 cells.
Experiment [3] has as its system KB. Description: Cytotoxicity against multidrug-resistant human KB cells in absence of vinblastine.
A further experiment deals with LNCaP. Description: Cytotoxicity against human LNCAP cells.
For experiment [4], the system named is KB. Description: Cytotoxicity against human KB cells.
In the next experiment the test system is P388. Description: Cytotoxicity against mouse P388 cells.

Take `C[C@H](O)/C=C/C#CC#CC#CCCCCCCCC(=O)O`: the EC50 is greater than 20 µg/mL in the experiment with KB [1]; 9.9 µg/mL (≈ 34.6 µM) in the experiment with Col2; 0.36 µg/mL (≈ 1.26 µM) with SW626; greater than 20 µg/mL in [2]; greater than 20 µg/mL in the experiment on Lu1; 3.7 µg/mL (≈ 12.9 µM) with SK-N-SH. Moreover, the EC50 with M109 is 5.4 µg/mL (≈ 18.9 µM); in the experiment with KB [3] it was greater than 20 µg/mL; in the experiment with LNCaP it was 0.3 µg/mL (≈ 1.05 µM); in the experiment with KB [4], 1.1 µg/mL (≈ 3.84 µM).

Take `O=C(O)CCCCCCCC#CC#CC#CC#CC(O)CO` (single isomer, unassigned): the EC50 is 11.9 µg/mL in the experiment on KB [1]; greater than 20 µg/mL with Col2; 19.4 µg/mL (≈ 64.6 µM) with SW626; greater than 20 µg/mL in [2]; 14.6 µg/mL (≈ 48.6 µM) with Lu1; 6.7 µg/mL (≈ 22.3 µM) in the experiment on SK-N-SH. In addition, the EC50 in the experiment on M109 was 10.1 µg/mL (≈ 33.6 µM); in the experiment with KB [3] it was 13.4 µg/mL (≈ 44.6 µM); in the experiment on LNCaP it was 9.2 µg/mL (≈ 30.6 µM); in the experiment on KB [4], 2.6 µg/mL (≈ 8.66 µM).

For the compound `C[C@H](O)C#CC#CC#CC#CCCCCCCCC(=O)O` [MINQUARTYNOIC ACID], the EC50 with P388 came out at 0.18 µg/mL (≈ 0.633 µM); with KB [1], 2.8 µg/mL; in the experiment on Col2, 5.5 µg/mL (≈ 19.3 µM); with SW626 it was 4.1 µg/mL (≈ 14.4 µM); in [2], 3.5 µg/mL (≈ 12.3 µM); in the experiment with Lu1, 4.1 µg/mL (≈ 14.4 µM). The EC50 in the experiment on SK-N-SH was determined as 1.4 µg/mL (≈ 4.92 µM); in the experiment with M109, 3.7 µg/mL (≈ 13 µM); in the experiment on KB [3] it was 4.3 µg/mL (≈ 15.1 µM); in the experiment on LNCaP, 1.6 µg/mL (≈ 5.63 µM); in the experiment on KB [4], 3.7 µg/mL (≈ 13 µM).
